Reference: PubChem BioAssay (NCI)
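Briefly, cells in 96-well plates were exposed to five compound concentrations for 48 h, and endpoints were estimated by linear interpolation. GI50: concentration for 50% inhibition of growth. TGI marks complete inhibition of growth.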

Key:
Assay in all cases: DTP human tumour cell line panel, 48 h
HCC-2998 colon = system: HCC-2998 colon
OVCAR-5 ovarian = system: OVCAR-5 ovarian
786-0 renal = system: 786-0 renal
OVCAR-8 ovarian = system: OVCAR-8 ovarian
MALME-3M melanoma = system: MALME-3M melanoma
KM12 colon = system: KM12 colon
SK-MEL-28 melanoma = system: SK-MEL-28 melanoma
SF-295 CNS = system: SF-295 CNS
SN12C renal = system: SN12C renal
NCI-H460 lung = system: NCI-H460 lung
UACC-62 melanoma = system: UACC-62 melanoma
HOP-62 NSCLC = system: HOP-62 NSCLC
HOP-92 NSCLC = system: HOP-92 NSCLC
U251 CNS = system: U251 CNS
HCT-15 colon = system: HCT-15 colon
DU-145 prostate = system: DU-145 prostate
OVCAR-4 ovarian = system: OVCAR-4 ovarian
NCI-H522 lung = system: NCI-H522 lung
HCT-116 colon = system: HCT-116 colon
SK-OV-3 ovarian = system: SK-OV-3 ovarian
UO-31 renal = system: UO-31 renal
SF-268 CNS = system: SF-268 CNS
UACC-257 melanoma = system: UACC-257 melanoma
CAKI-1 renal = system: CAKI-1 renal
K-562 leukemia = system: K-562 leukemia
LOX IMVI melanoma = system: LOX IMVI melanoma
COLO 205 colon = system: COLO 205 colon
IGROV1 ovarian = system: IGROV1 ovarian
MOLT-4 leukemia = system: MOLT-4 leukemia
SW-620 colon = system: SW-620 colon
NCI-H23 lung = system: NCI-H23 lung
T-47D breast = system: T-47D breast
TK-10 renal = system: TK-10 renal
SK-MEL-2 melanoma = system: SK-MEL-2 melanoma
MDA-MB-231 breast = system: MDA-MB-231 breast
SR leukemia = system: SR leukemia
MCF7 breast = system: MCF7 breast
EKVX NSCLC = system: EKVX NSCLC
HS 578T breast = system: HS 578T breast
NCI/ADR-RES ovarian = system: NCI/ADR-RES ovarian
SK-MEL-5 melanoma = system: SK-MEL-5 melanoma
OVCAR-3 ovarian = system: OVCAR-3 ovarian
SF-539 CNS = system: SF-539 CNS
PC-3 prostate = system: PC-3 prostate
A498 renal = system: A498 renal
NCI-H226 lung = system: NCI-H226 lung
HT29 colon = system: HT29 colon
SNB-19 CNS = system: SNB-19 CNS
M14 melanoma = system: M14 melanoma
BT-549 breast = system: BT-549 breast
A549 NSCLC = system: A549 NSCLC
ACHN renal = system: ACHN renal
HL-60(TB) leukemia = system: HL-60(TB) leukemia

Which GI50 (HCC-2998 colon) does the source give for `COc1ccc2c(c1)sc1nc(-c3ccccc3)c(-c3ccsc3)n12` here?
Its GI50 is 4.86 µM.

What about the TGI (HCC-2998 colon) of the same compound?
The TGI was 93.1 µM.

What about the GI50 (OVCAR-5 ovarian) of the same compound?
The GI50 was 4.49 µM.

And the TGI (OVCAR-5 ovarian)?
The TGI was over 100 µM.

What about the GI50 (786-0 renal) of the same compound?
Its GI50 is 7.58 µM.

What about the TGI (786-0 renal) of the same compound?
The TGI was over 100 µM.

What about the GI50 (OVCAR-8 ovarian) of the same compound?
The GI50 was 5.95 µM.

And the TGI (OVCAR-8 ovarian)?
The TGI was over 100 µM.

What about the GI50 (MALME-3M melanoma) of the same compound?
Its GI50 is over 100 µM.

And the TGI (MALME-3M melanoma)?
Its TGI is over 100 µM.

What about the GI50 (KM12 colon) of the same compound?
Its GI50 is 3.7 µM.

And the TGI (KM12 colon)?
The TGI was over 100 µM.

What about the GI50 (SK-MEL-28 melanoma) of the same compound?
Its GI50 is 4.9 µM.

What about the TGI (SK-MEL-28 melanoma) of the same compound?
Its TGI is over 100 µM.

And the GI50 (SF-295 CNS)?
Its GI50 is 3.06 µM.

What about the TGI (SF-295 CNS) of the same compound?
The TGI was over 100 µM.

What about the GI50 (SN12C renal) of the same compound?
Its GI50 is 12.1 µM.

What about the TGI (SN12C renal) of the same compound?
Its TGI is over 100 µM.

And the GI50 (NCI-H460 lung)?
The GI50 was 4.45 µM.

And the TGI (NCI-H460 lung)?
The TGI was over 100 µM.

And the GI50 (UACC-62 melanoma)?
Its GI50 is 3.52 µM.

What about the TGI (UACC-62 melanoma) of the same compound?
Its TGI is over 100 µM.

And the GI50 (HOP-62 NSCLC)?
Its GI50 is 7.86 µM.

And the TGI (HOP-62 NSCLC)?
Its TGI is over 100 µM.

And the GI50 (HOP-92 NSCLC)?
The GI50 was 9.89 µM.

What about the TGI (HOP-92 NSCLC) of the same compound?
The TGI was over 100 µM.

What about the GI50 (U251 CNS) of the same compound?
Its GI50 is 3.72 µM.

What about the TGI (U251 CNS) of the same compound?
Its TGI is over 100 µM.

And the GI50 (HCT-15 colon)?
Its GI50 is 2.91 µM.

What about the TGI (HCT-15 colon) of the same compound?
The TGI was over 100 µM.

What about the GI50 (DU-145 prostate) of the same compound?
Its GI50 is 3.45 µM.

And the TGI (DU-145 prostate)?
Its TGI is over 100 µM.

What about the GI50 (OVCAR-4 ovarian) of the same compound?
The GI50 was 3.7 µM.

And the TGI (OVCAR-4 ovarian)?
Its TGI is over 100 µM.

What about the GI50 (NCI-H522 lung) of the same compound?
The GI50 was 2.99 µM.

And the TGI (NCI-H522 lung)?
Its TGI is 36.8 µM.

And the GI50 (HCT-116 colon)?
The GI50 was 4.18 µM.

What about the TGI (HCT-116 colon) of the same compound?
The TGI was over 100 µM.

What about the GI50 (SK-OV-3 ovarian) of the same compound?
Its GI50 is 3.48 µM.

And the TGI (SK-OV-3 ovarian)?
The TGI was 64.6 µM.

What about the GI50 (UO-31 renal) of the same compound?
The GI50 was 6.03 µM.

And the TGI (UO-31 renal)?
The TGI was over 100 µM.

What about the GI50 (SF-268 CNS) of the same compound?
Its GI50 is 8.54 µM.

What about the TGI (SF-268 CNS) of the same compound?
The TGI was over 100 µM.

And the GI50 (UACC-257 melanoma)?
Its GI50 is over 100 µM.

What about the TGI (UACC-257 melanoma) of the same compound?
The TGI was over 100 µM.

What about the GI50 (CAKI-1 renal) of the same compound?
Its GI50 is 5.04 µM.

And the TGI (CAKI-1 renal)?
The TGI was over 100 µM.

What about the GI50 (K-562 leukemia) of the same compound?
The GI50 was 0.878 µM.

What about the TGI (K-562 leukemia) of the same compound?
The TGI was over 100 µM.

What about the GI50 (LOX IMVI melanoma) of the same compound?
The GI50 was 5.25 µM.

What about the TGI (LOX IMVI melanoma) of the same compound?
The TGI was over 100 µM.

What about the GI50 (COLO 205 colon) of the same compound?
Its GI50 is 2.26 µM.

What about the TGI (COLO 205 colon) of the same compound?
Its TGI is 6.38 µM.

And the GI50 (IGROV1 ovarian)?
Its GI50 is 6.53 µM.

And the TGI (IGROV1 ovarian)?
Its TGI is over 100 µM.

What about the GI50 (MOLT-4 leukemia) of the same compound?
The GI50 was 4.24 µM.

And the TGI (MOLT-4 leukemia)?
The TGI was over 100 µM.

What about the GI50 (SW-620 colon) of the same compound?
The GI50 was 3.84 µM.

And the TGI (SW-620 colon)?
The TGI was over 100 µM.

And the GI50 (NCI-H23 lung)?
The GI50 was 4 µM.

And the TGI (NCI-H23 lung)?
Its TGI is over 100 µM.

And the GI50 (T-47D breast)?
Its GI50 is 6.27 µM.

And the TGI (T-47D breast)?
The TGI was over 100 µM.

What about the GI50 (TK-10 renal) of the same compound?
The GI50 was 37.7 µM.

And the TGI (TK-10 renal)?
Its TGI is over 100 µM.

What about the GI50 (SK-MEL-2 melanoma) of the same compound?
Its GI50 is 9.72 µM.

What about the TGI (SK-MEL-2 melanoma) of the same compound?
Its TGI is over 100 µM.

What about the GI50 (MDA-MB-231 breast) of the same compound?
Its GI50 is 5.46 µM.

And the TGI (MDA-MB-231 breast)?
Its TGI is over 100 µM.

And the GI50 (SR leukemia)?
Its GI50 is 2.02 µM.

What about the TGI (SR leukemia) of the same compound?
Its TGI is over 100 µM.

And the GI50 (MCF7 breast)?
The GI50 was 3.78 µM.

What about the TGI (MCF7 breast) of the same compound?
Its TGI is over 100 µM.

What about the GI50 (EKVX NSCLC) of the same compound?
Its GI50 is 7.76 µM.

And the TGI (EKVX NSCLC)?
Its TGI is over 100 µM.

What about the GI50 (HS 578T breast) of the same compound?
Its GI50 is over 100 µM.

What about the TGI (HS 578T breast) of the same compound?
The TGI was over 100 µM.

What about the GI50 (NCI/ADR-RES ovarian) of the same compound?
The GI50 was 2.53 µM.

And the TGI (NCI/ADR-RES ovarian)?
Its TGI is over 100 µM.

What about the GI50 (SK-MEL-5 melanoma) of the same compound?
Its GI50 is 3.34 µM.

And the TGI (SK-MEL-5 melanoma)?
Its TGI is 47.4 µM.

And the GI50 (OVCAR-3 ovarian)?
Its GI50 is 2.15 µM.

What about the TGI (OVCAR-3 ovarian) of the same compound?
Its TGI is 5.37 µM.

And the GI50 (SF-539 CNS)?
The GI50 was 2.62 µM.

What about the TGI (SF-539 CNS) of the same compound?
Its TGI is over 100 µM.

What about the GI50 (PC-3 prostate) of the same compound?
The GI50 was 4.02 µM.

And the TGI (PC-3 prostate)?
Its TGI is over 100 µM.

What about the GI50 (A498 renal) of the same compound?
The GI50 was 6.26 µM.

And the TGI (A498 renal)?
Its TGI is over 100 µM.

And the GI50 (NCI-H226 lung)?
Its GI50 is 2.17 µM.

What about the TGI (NCI-H226 lung) of the same compound?
Its TGI is 18.1 µM.

What about the GI50 (HT29 colon) of the same compound?
The GI50 was 2.95 µM.

And the TGI (HT29 colon)?
Its TGI is 10.5 µM.

And the GI50 (SNB-19 CNS)?
The GI50 was 6.9 µM.

What about the TGI (SNB-19 CNS) of the same compound?
Its TGI is over 100 µM.

What about the GI50 (M14 melanoma) of the same compound?
The GI50 was 2.64 µM.

And the TGI (M14 melanoma)?
The TGI was over 100 µM.

What about the GI50 (BT-549 breast) of the same compound?
Its GI50 is 6.56 µM.

And the TGI (BT-549 breast)?
The TGI was over 100 µM.

What about the GI50 (A549 NSCLC) of the same compound?
The GI50 was 5.02 µM.

What about the TGI (A549 NSCLC) of the same compound?
Its TGI is over 100 µM.

And the GI50 (ACHN renal)?
The GI50 was 6.76 µM.

What about the TGI (ACHN renal) of the same compound?
Its TGI is over 100 µM.

What about the GI50 (HL-60(TB) leukemia) of the same compound?
The GI50 was 3.95 µM.

What about the TGI (HL-60(TB) leukemia) of the same compound?
Its TGI is 92.7 µM.
